Earlier results, collected in US20090019042A1, “Method Of Screening Compound Regulating The Translation Of Specific mRNA” (Takeda Pharmaceutical Company Limited, priority 2004, published 2009).

What was measured:
[1] = target: LysC mRNA; conditions: L-lysine recognised by LysC mRNA
[2] = target: xpt-pbux mRNA; conditions: guanine recognised by xpt-pbux mRNA

Kd [2] [nM]	Compound	Kd [1] [nM]
–	NCCCC[C@H](N)C(=O)O [L-lysine]	1000
< 5	Nc1nc2nc[nH]c2c(=O)[nH]1 [guanine]	–
